According to article doi:10.1101/2025.11.25.689777, “NanoBRET Tracer Development for Class I Bromodomain Target Engagement in Live Cells” (bioRxiv, 2025):
Like-named read-outs stand apart in the source and are kept apart here. Blank lines part the entries; values can stand above or below the molecule they belong to.

Experiments:
[1] = target: T1, GCN5-Nluc (Homo sapiens, UniProt Q92830); test: Competition NanoBRET on full-length GCN5-Nluc with MS-1 in HEK293T cells; assay type: cell-based
T1 construct: The C-terminal full-length GCN5-Nluc construct was titrated against MS-1; host or cells: HEK293T
Experimental: HEK293T Cell Culture and Transfection
(§1) HEK293T cells were cultured in DMEM, 10% FBS, 5% penicillin-streptomycin and incubated at 37 °C with 5% CO 2. The NanoBRET assay was executed based on the Promega NanoBRET TE 590 Dyes technical protocol. HEK293T cells (200,000 cells/mL) were transiently transfected with each target-NanoLuc fusion vector. A 10 μg/mL solution of lipid:DNA complexes containing each fusion vector were prepared with 9.0 μg/mL of transfection carrier DNA (Promega), 1.0 μg/mL of target-NanoLuc fusion vector DNA
(§2) (Promega), and 1 mL of Opti-MEM I. FuGENE HD Transfection Reagent (Promega) was added at a concentration of 30 μL per mL of DNA mixture. The lipid:DNA complex mixture was inverted five times and allowed to incubate for 20 minutes at room temperature.
(§3) Lipid:DNA complex was then added to HEK293T cells in a 1:20 lipid:DNA complex to cells ratio. The subsequent mixture was inverted and dispensed into sterile tissue culture flasks at a density between 55,000 and 80,000 cells/cm 2. The cells were incubated for 20 – 30 hours at 37 °C, 5% CO 2. Following incubation, the transfected cells were then adjusted to a density of 200,000 cells/mL in Opti-MEM I.
General NanoBRET Assay Protocol […]
BPTF-BRD BRET assays were conducted using a final MS-1 concentration of 0.5 μM, and PCAF, GCN5, and CECR2 used a final MS-1 concentration of 1 μM. […] BRET was then measured in a Tecan Spark plate reader following a 30 second orbital shake with an amplitude of 1 mm and frequency of 510 rpm.
(§4) DMSO control wells with no tracer and no inhibitor for background correction as well as control wells with tracer and no inhibitor to determine the maximal assay window. For both tracer and inhibitor titration plots, a BRET ratio for each concentration was calculated as acceptor response divided by donor response. […]

[2] = target: T2, PCAF-Nluc (Homo sapiens, UniProt Q92831); test: Competition NanoBRET on full-length PCAF-Nluc with MS-1 in HEK293T cells; assay type: cell-based
T2 construct: two constructs of full-length PCAF containing either N- or C-terminal Nluc; host or cells: HEK293T
Experimental: First, engagement of MS-1 with full-length PCAF was investigated. MS-1 was titrated against two constructs of full-length PCAF containing either N- or C-terminal Nluc to determine the optimal position of the Nluc enzyme.
HEK293T Cell Culture and Transfection
as §1, §2, §3
General NanoBRET Assay Protocol […]
(§5) BPTF-BRD BRET assays were conducted using a final MS-1 concentration of 0.5 μM, and PCAF, GCN5, and CECR2 used a final MS-1 concentration of 1 μM. […] BRET was then measured in a Tecan Spark plate reader following a 30 second orbital shake with an amplitude of 1 mm and frequency of 510 rpm. Luminescence was measured using the luminescence […]
as §4

[3] = target: T3, BPTF-BRD-Nluc (Homo sapiens, UniProt Q12830); test: Competition NanoBRET target engagement, inhibitors vs MS-1 tracer on BPTF-BRD-Nluc in HEK293T cells; settings: for inhibition of the BPTF-BRD in NanoBRET titration: BPTF-BRD-Nluc, 0.5 μM MS-1
Description: One assay which can be used to determine bromodomain inhibitor engagement in live cells is known as NanoBRET based on bioluminescent resonance energy transfer. NanoBRET requires a nanoluciferase (Nluc) enzyme to be fused to a protein of interest at either the N- or C-terminus of the protein and expressed in cells. Secondly, a small molecule tracer must be developed which contains the protein ligand, linker, and fluorophore. […] The ligand binds to the protein, and the BODIPY fluorophore has a structural requirement to be in proximity of less than 10 nm to the Nluc enzyme. Finally, when the Nluc substrate furimazine is added, Nluc oxidatively converts the substrate into furimamide, CO2, and light.[7],[8] The energy from the bioluminescence can be transferred to the BODIPY fluorophore leading to the BRET signal. When unlabeled bromodomain inhibitors are added, the tracer is displaced resulting in a dose-dependent reduction in BRET (Figure 1A).
MS-1 was next assessed for its utility in a competition-based NanoBRET experiment for the determination of live cell bromodomain engagement.
HEK293T Cell Culture and Transfection
as §1, §2, §3
General NanoBRET Assay Protocol
BRET assays were performed using white, 384-well tissue-culture-treated plates (Corning HEK293T cells were plated at 7 x 10^3 cells per well. Stock DMSO solutions of each novel BRET tracer to be tested were diluted in Tracer Dilution Buffer (Promega) to achieve a 20X concentration by adding 4:1 Tracer Dilution Buffer to 1 part 100X tracer.
BPTF-BRD BRET assays were conducted using a final MS-1 concentration of 0.5 μM, and PCAF, GCN5, and CECR2 used a final MS-1 concentration of 1 μM. Stock DMSO solutions of inhibitors were diluted to a 1,000X concentration in 100% DMSO and subsequently dissolved to a final 10X concentration in Opti-MEM. Upon addition of the tracer and inhibitor, the cells were incubated for 2 hours at 37 °C, 5% CO 2.

[4] = target: T3, BPTF-BRD-Nluc; test: NanoBRET tracer titration against BPTF-BRD-Nluc in HEK293T cells; assay type: cell-based; settings: for EC50: tracer titrated against BPTF-BRD-Nluc, HEK293T cells, n=2
[5] = target: T4, BPTF-BRD (Homo sapiens, UniProt Q12830); test: Kinetic NanoBRET measurement of tracer kon, koff and Kd with the BPTF-BRD; assay type: cell-based
Experimental: Figure 3. A) Tracer titration plots against BPTF-BRD-Nluc in HEK293T cells and their EC50 values. *second replicate EC50 could not be determined due to an incomplete curve. B) Kinetics data with MS-1 at varying concentrations over 25 minutes (truncated from 1 hour). C) Linear plot of kobs values at each concentration of MS-1. The kon and koff values were determined from the linear fit equation and were used to calculate the Kd. D) BI-7190 titration plots at various MS-1 concentrations to determine ideal assay window. EC50 values of BI-7190 are reported at various MS-1 concentrations. All graphical data represents mean ± standard deviation where A, B, and C are technical duplicates with n=2, and D is reported as a technical duplicate with n=3. […] (μM) of the same panel. / Panel D: the concentration row of the table is headed [BI-7190] as printed; it is unclear whether 2, 1, 0.5 and 0.25 μM are concentrations of BI-7190 or of another substance.
Before testing inhibitors, the Kd value of the tracer with the BPTF-BRD was measured kinetically by determining the kon and koff rates of the NanoBRET tracer. The Kd of the tracer enables the conversion of EC50 values to apparent Ki values. Varying concentrations of MS-1 were dosed, and measurements were taken every 35 seconds over the course of one hour (Figure 3B). The association of MS-1 with the BPTF-BRD was fast (~ 15 minutes). Data was fit using one-phase association and kobs values were determined for each concentration. […] This affinity is within two-fold of the EC50 derived for MS-1, indicating good cell permeability of the tracer. Additionally, this moderate affinity is an ideal range for future competition experiments.

[6] = target: T5, Nluc-CECR2 (Homo sapiens, UniProt Q9BXF3); test: Competition NanoBRET on full-length Nluc-CECR2 with MS-1 in HEK293T cells; assay type: cell-based
T5 construct: MS-1 was titrated against the N-terminal full length Nluc-CECR2; host or cells: HEK293T
Experimental: MS-1 was titrated against the N-terminal full length Nluc-CECR2.
HEK293T Cell Culture and Transfection
as §1, §2, §3
General NanoBRET Assay Protocol […]
as §5, §4

[7] = Caco-2 cell-based permeability assay; assay type: in vitro ADME; settings: human, Caco-2, pH 7.4, 2 h at 37 °C
Experimental: Figure S6. MS-1 titration against Nluc-CECR2 in the presence of either DMSO (purple) or
compound 4 (black) at 100 μM.
Caco-2 Cell-Based Permeability Assay
The Caco-2 permeability assay was conducted as previously described
(PMID: 36793425). Briefly, Caco-2 cells were maintained at 37 °C in a humidified
incubator with 5% CO2, cultured in MEM supplemented with 10% FBS, 100 units/ml of
penicillin, and 100 μg/ml of streptomycin in 75 cm 2 flasks. Cells were seeded onto 96-well
Transwell inserts at a density of 0.165×10^5 cells/insert and cultured for an additional 7
days. Monolayers were washed twice with HBSS/HEPES (10 mM, pH 7.4) before starting
the permeability assay. To initiate the assay, a 10 μmol/L solution of each test compound
was added to either the apical (A) or basolateral (B) side of the inserts. The monolayers
were incubated for 2 h at 37 °C. Samples were collected from both compartments and
compound concentrations were measured by UPLC/MS (Waters; Milford, MA). All
compounds were tested in triplicates.
The apparent permeability coefficient (Papp, cm/s) of each compound in the A→B (or
B→A) direction was calculated using the equation: […]
where dQ/dt is the flux (μmol/s), A is the surface area (cm 2), and C0 is the initial
Chromatographic separation was performed on a Waters Acquity UPLC system coupled
to an SQ mass spectrometer. […]
recording was used for quantification of each compound.

[8] = target: T4, BPTF-BRD; test: In vitro AlphaScreen competitive inhibition; assay type: biochemical; settings: for IC50: in vitro, BPTF-BRD
[9] = set-up: method as in PMID 34146702; settings: reported PAMPA data; cited from earlier work
[10] = target: PCAF; set-up: method as in PMID 27966810; settings: read-out: literature Kd; cited from earlier work
[11] = legend calls it literature permeability data; cited from earlier work
[12] = target: class I bromodomains PCAF, GCN5, and CECR2; set-up: method as in PMID 34515477; settings: off-target activity; read-out: affinities for the other class I bromodomains; cited from earlier work
[13] = known from the literature; cited from earlier work
[14] = target: T4, BPTF-BRD; set-up: method as in PMID 34375106; settings: read-out: Lit. Values: BRET EC50; cited from earlier work
[15] = target: T4, BPTF-BRD; settings: ITC; cited from earlier work
[16] = BRET EC50, BPTF-BRD-Nluc, 0.5 μM MS-1, HEK293T cells, n=2

T1 sequence (Q92830 whole entry): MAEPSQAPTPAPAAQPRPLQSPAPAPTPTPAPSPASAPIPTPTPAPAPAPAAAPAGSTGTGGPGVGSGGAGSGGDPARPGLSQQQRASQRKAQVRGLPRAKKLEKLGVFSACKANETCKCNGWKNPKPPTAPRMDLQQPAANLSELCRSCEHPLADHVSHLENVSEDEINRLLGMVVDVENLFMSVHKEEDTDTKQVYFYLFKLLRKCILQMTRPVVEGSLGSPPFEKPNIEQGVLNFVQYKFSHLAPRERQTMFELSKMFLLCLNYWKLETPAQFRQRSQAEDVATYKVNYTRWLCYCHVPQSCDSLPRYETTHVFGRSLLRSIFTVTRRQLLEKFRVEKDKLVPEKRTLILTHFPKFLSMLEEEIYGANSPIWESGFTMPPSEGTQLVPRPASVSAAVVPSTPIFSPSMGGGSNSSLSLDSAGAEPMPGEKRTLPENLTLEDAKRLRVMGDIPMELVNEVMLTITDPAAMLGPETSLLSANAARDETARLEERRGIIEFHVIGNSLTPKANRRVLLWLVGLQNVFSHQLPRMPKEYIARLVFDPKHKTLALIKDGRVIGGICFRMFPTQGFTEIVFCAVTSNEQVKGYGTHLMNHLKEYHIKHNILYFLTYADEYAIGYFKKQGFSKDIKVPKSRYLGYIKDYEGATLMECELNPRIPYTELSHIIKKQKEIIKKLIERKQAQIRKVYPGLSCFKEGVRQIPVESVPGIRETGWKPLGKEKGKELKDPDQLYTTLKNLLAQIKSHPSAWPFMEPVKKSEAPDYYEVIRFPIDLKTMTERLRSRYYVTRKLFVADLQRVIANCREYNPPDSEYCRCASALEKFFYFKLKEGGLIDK
T2 sequence (Q92831 whole entry): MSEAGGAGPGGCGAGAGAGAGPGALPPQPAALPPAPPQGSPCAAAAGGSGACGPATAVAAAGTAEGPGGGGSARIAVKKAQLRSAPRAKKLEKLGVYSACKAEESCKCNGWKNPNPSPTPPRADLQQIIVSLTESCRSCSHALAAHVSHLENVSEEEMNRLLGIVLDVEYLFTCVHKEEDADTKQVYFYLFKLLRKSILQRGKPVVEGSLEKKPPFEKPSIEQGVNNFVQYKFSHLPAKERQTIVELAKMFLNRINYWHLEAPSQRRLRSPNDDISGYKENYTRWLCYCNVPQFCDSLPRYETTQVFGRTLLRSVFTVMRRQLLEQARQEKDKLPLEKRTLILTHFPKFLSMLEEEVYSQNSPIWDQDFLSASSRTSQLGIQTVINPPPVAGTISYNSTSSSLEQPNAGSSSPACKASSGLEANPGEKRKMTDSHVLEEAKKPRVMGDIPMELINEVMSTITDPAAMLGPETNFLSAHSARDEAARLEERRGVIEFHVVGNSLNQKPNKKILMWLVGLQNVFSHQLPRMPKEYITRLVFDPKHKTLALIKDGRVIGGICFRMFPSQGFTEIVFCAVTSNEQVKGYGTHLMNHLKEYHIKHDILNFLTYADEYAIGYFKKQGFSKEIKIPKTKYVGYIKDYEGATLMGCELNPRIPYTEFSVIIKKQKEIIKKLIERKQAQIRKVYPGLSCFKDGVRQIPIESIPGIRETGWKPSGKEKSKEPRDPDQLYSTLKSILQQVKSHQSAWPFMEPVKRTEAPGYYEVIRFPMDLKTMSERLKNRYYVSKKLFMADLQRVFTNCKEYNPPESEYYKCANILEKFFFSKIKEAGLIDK
T5 sequence (Q9BXF3 whole entry): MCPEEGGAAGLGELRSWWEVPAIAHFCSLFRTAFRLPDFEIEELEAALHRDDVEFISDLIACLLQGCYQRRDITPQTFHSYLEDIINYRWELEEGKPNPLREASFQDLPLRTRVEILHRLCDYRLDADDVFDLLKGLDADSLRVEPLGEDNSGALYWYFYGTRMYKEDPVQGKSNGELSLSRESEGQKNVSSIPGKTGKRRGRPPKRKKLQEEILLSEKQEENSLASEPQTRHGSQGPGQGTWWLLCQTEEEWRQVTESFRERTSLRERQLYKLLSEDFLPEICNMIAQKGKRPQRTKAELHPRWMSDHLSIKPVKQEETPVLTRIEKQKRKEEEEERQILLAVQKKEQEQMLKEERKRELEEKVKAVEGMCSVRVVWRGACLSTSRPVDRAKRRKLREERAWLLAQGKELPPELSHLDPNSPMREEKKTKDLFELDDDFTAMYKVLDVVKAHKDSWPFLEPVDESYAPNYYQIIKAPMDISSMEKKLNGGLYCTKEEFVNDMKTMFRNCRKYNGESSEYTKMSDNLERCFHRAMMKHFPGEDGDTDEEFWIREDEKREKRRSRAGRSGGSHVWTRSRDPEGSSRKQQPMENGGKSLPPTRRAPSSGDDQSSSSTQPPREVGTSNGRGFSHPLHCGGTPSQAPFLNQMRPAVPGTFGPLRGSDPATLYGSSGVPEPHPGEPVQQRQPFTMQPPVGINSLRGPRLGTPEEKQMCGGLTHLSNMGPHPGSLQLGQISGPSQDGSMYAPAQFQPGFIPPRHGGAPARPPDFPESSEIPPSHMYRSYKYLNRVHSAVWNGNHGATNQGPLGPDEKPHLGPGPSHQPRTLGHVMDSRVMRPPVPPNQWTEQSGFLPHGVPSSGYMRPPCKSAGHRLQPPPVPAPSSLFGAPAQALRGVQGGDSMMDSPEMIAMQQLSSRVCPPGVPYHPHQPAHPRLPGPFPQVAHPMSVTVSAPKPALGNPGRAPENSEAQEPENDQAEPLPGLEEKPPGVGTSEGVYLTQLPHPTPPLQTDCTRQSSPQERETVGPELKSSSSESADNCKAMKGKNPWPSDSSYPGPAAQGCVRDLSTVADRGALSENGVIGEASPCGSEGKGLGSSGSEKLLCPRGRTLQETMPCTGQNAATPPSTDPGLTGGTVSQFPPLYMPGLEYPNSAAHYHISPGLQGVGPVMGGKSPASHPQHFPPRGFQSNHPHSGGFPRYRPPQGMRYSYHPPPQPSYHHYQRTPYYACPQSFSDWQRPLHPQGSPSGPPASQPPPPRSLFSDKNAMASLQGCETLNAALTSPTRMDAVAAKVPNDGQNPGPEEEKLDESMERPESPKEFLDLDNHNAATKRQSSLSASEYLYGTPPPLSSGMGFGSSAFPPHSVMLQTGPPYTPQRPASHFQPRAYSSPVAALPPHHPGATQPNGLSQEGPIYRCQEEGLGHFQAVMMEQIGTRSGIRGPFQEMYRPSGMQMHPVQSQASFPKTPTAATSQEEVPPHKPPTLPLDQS

assay window ([1]; 1 μM MS-1, GCN5-Nluc): ~20 mBu | competition of tracer by compound 4 (non-specific interactions) ([1]; GCN5-Nluc, 4 at 100 μM): competed away | assay window ([2]; 1 μM MS-1, PCAF-Nluc): ~20 mBu | competition of tracer by compound 4 (non-specific interactions) ([2]; PCAF-Nluc, 4 at 100 μM): competed away | assay window ([3]; 0.5 μM MS-1, BPTF-BRD-Nluc): ~30 mBu | competition of tracer by compound 4 (non-specific interactions) ([4]; BPTF-BRD-Nluc, 25X molar excess of 4 (100 μM)): largely competed away | EC50 [4]: 0.6 ± 0.1 µM | assay window ([4]; tracer titration, BPTF-BRD-Nluc construct): 60 mBu | koff ([5]; linear fit of kobs vs [MS-1]): 0.00181 ± 3e-05 s⁻¹ | kon ([5]; linear fit of kobs vs [MS-1]): 1800 ± 400 M⁻¹ s⁻¹ | Kd ([5]; measured kinetically, calculated from kon and koff): 1100 ± 300 nM | association with the BPTF-BRD (time) ([5]; measurements every 35 seconds over one hour): ~ 15 minutes | assay window ([6]; 1 μM MS-1, Nluc-CECR2): around 20 mBu | competition of tracer by compound 4 (non-specific interactions) ([6]; Nluc-CECR2, 4 at 100 μM): less-efficient competition
Structure (SMILES): Cn1ncc(Nc2ccc3c(c2)CCN(CCCCNC(=O)CCc2ccc4n2[B-](F)(F)[N+]2=C(c5ccc[nH]5)C=CC2=C4)C3)c(Cl)c1=O [MS-1]

inhibition of the BPTF-BRD in NanoBRET titration [3]: neither showed full inhibition
Structure (SMILES): COC(=O)c1cccc(NC(=O)NC2CCN(c3ccnc(Nc4ccc(F)cc4)n3)C2)c1 (racemic) [AU1 (Rac)]

Structure (SMILES): CN1CCc2cc(Nc3cnn(C)c(=O)c3Cl)ccc2C1 [compound 4]
Papp at 2 h, 10 μmol/L [7]: 47 ± 20 ×10⁻⁶ cm/s | EC50 [3, 16]: 900 ± 200 nM | IC50 [8]: 260 nM

EC50 [3, 16]: 1200 ± 100 nM | EC50 ([6]; Nluc-CECR2, n=2, MS-1 1 μM in text and SI, 0.5 μM in Figure 6 legend, read-out: BRET EC50): 620 ± 60 nM
Structure (SMILES): CN(C)CCCOc1ccc(-c2cc(NCCCn3cccn3)nc(S(C)(=O)=O)n2)cc1 [TP-238]
Caco-2 or PAMPA: PAMPA [9]: 28 10^-6 cm/s

EC50 [4]: 3.3 ± 0.1 µM
Structure (SMILES): Cn1ncc(Nc2ccc3c(c2)CCN(CCCCNC(=O)CCCNC(=O)CCc2ccc4n2[B-](F)(F)[N+]2=C(c5ccc[nH]5)C=CC2=C4)C3)c(Cl)c1=O [MS-2]

EC50 ([1]; GCN5-Nluc, 1 μM MS-1, n=2, read-out: BRET EC50): 500 ± 60 nM | EC50 ([2]; PCAF-Nluc, 1 μM MS-1, n=2, read-out: BRET EC50): 280 ± 50 nM
Structure (SMILES): Cc1nnc2c3ccccc3c(N[C@@H](C)[C@H](c3ccccc3)N(C)C)nn12 [L-Moses, reference compound]
Kd [10]: 126 nM

EC50 [4]: 3.7 µM
Structure (SMILES): Cn1ncc(Nc2ccc3c(c2)CCN(CCCCNC(=O)CCOCCOCCOCCOCCNC(=O)CCc2ccc4n2[B-](F)(F)[N+]2=C(c5ccc[nH]5)C=CC2=C4)C3)c(Cl)c1=O [MS-3]

Structure (SMILES): Cn1ncc(Nc2ccc(CCN)cc2)c(Cl)c1=O [BZ1]
Caco-2 or PAMPA: Caco-2 [11]: 0.9 ± 5 10^-6 cm/s | Kd [12]: 11 to 44 nM

EC50 [3, 16]: 400 ± 50 nM
Structure (SMILES): Cc1c(Nc2ccc(S(=O)(=O)N3CCN(C)CC3)cc2F)nc2ccc(-c3cnn(C4CC4)c3)cn2c1=O [NVS-BPTF-1]
Caco-2 or PAMPA: PAMPA [9]: 16 10^-6 cm/s | solubility [13]: poor solubility

inhibition of the BPTF-BRD in NanoBRET titration [3]: neither showed full inhibition
Structure (SMILES): COC(=O)c1cccc(NC(=O)N[C@H]2CCN(c3ccnc(Nc4ccc(F)cc4)n3)C2)c1 [S-AU1]

EC50 [3, 16]: 4000 ± 300 nM | IC50 [8]: 2100 nM
Structure (SMILES): CN1CCc2ccc(Nc3cnn(C)c(=O)c3Cl)cc2C1 [compound 6]

EC50 [3, 16]: 66 ± 3 nM | EC50 ([3]; EC50, printed [BI-7190]: 0.25 μM (MS-1 concentration per legend), n=3): 70 ± 10 nM | EC50 ([3]; EC50, printed [BI-7190]: 0.5 μM (MS-1 concentration per legend), n=3): 100 ± 10 nM | EC50 ([3]; EC50, printed [BI-7190]: 1 μM (MS-1 concentration per legend), n=3): 160 ± 20 nM | EC50 ([3]; EC50, printed [BI-7190]: 2 μM (MS-1 concentration per legend), n=3): 200 ± 10 nM
Structure (SMILES): COc1cc(-c2cn(C)c(=O)c(C)c2C)ccc1C1(N2CCN(C)CC2)CC1 [BI-7190]
Caco-2 or PAMPA: Caco-2 [11]: 21 10^-6 cm/s | EC50 [14]: 58 nM | Kd [15]: 85 nM

Structure (SMILES): CN1CCc2cc(Nc3ncn(C)c(=O)c3Cl)ccc2C1 [compound 5]
Papp at 2 h, 10 μmol/L [7]: 70 ± 80 ×10⁻⁶ cm/s | EC50 [3, 16]: 1400 ± 200 nM | fold lower affinity in cells ([3]; compound 5 compared with compound 4, NanoBRET EC50): 1.5 fold | fold lower affinity in vitro ([8]; compound 5 compared with compound 4, AlphaScreen IC50): 2.5 fold | IC50 [8]: 660 ± 40 nM

EC50 [3, 16]: 450 ± 20 nM
Structure (SMILES): CN(C)CCCn1ccc2cc(-c3nc(S(C)(=O)=O)nc4[nH]ccc34)ccc21 [DC-BPi-11]
